Target: T1, p53 Y220C (Homo sapiens, UniProt P04637, Y220C)
T1 construct: The recombinant protein was a truncation mutant containing only amino acids 94-312 of p53; made in house; host or cells: E. coli
Assay: In vitro DNA binding activity assay (HTRF / TR-FRET): stabilization of p53 Y220C and increase of its DNA binding activity
Format: biochemical
Conditions: recombinant His-tagged p53 Y220C DNA binding domain (aa 94-312), biotin-labeled consensus DNA, incubated at 27° C. or 29° C. for 60 min
Outline: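 Stabilization of the mutant is inferred from increased binding of His-tagged p53 Y220C to a biotin-labeled consensus DNA, detected by HTRF with europium-streptavidin and APC-anti-His antibody. The concentration giving a 50% rise over compound-free binding is reported as SC150.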

T1 sequence (P04637 94-312, change not shown): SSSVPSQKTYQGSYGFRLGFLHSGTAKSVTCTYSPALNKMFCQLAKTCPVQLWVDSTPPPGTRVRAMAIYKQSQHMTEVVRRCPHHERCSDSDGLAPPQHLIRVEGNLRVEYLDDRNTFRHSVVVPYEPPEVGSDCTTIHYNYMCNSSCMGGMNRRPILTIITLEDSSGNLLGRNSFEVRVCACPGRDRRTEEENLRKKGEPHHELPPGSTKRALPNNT

| SMILES | SC150 (concentration of the compound required to increase the DNA binding activity by 50%) |
| --- | --- |
| COC[C@H](O)CN1CCC(Nc2cccc3c2cc(C#CCNc2ccc(S(C)(=O)=O)cc2OC)n3CC(F)(F)F)CC1 [Compound 611A, (2R)-1-{4-[(2-{3-[(4-methanesulfonyl-2-methoxyphenyl)amino]prop-1-yn-1-yl}-1-(2,2,2-trifluoroethyl)-1H-indol-4-yl)amino]piperidin-1-yl}-3-methoxypropan-2-ol] | + (+ = 0 μM ≤ SC150 < 0.05 μM) |
| COc1cc(C(N)=O)ccc1NCC#Cc1cc2c(N[C@H]3CC[C@@H](N(C)C)CC3)cccc2n1CC(F)(F)F [Compound 613A, 3-methoxy-4-{[3-(4-{[(1S,4S)-4-(dimethylamino)cyclohexyl]amino}-1-(2,2,2-trifluoroethyl)-1H-indol-2-yl)prop-2-yn-1-yl]amino}benzamide] | + (+ = 0 μM ≤ SC150 < 0.05 μM) |
| CNC(=O)c1ccc(NCC#Cc2cc3c(NC4CCN(CCOC)CC4)cccc3n2CC(F)(F)F)c(OC)c1 [Compound 616A, 3-methoxy-4-{[3-(4-{[1-(2-methoxyethyl)piperidin-4-yl]amino}-1-(2,2,2-trifluoroethyl)-1H-indol-2-yl)prop-2-yn-1-yl]amino}-N-methylbenzamide] | + (+ = 0 μM ≤ SC150 < 0.05 μM) |
| COCC(O)CN1CCC(Nc2cccc3c2cc(C#CCNc2ccc(S(C)(=O)=O)cc2O)n3CC(F)(F)F)CC1 (stereo not shown) [Compound 621A, 2-{[3-(4-{[1-(2-hydroxy-3-methoxypropyl)piperidin-4-yl]amino}-1-(2,2,2-trifluoroethyl)-1H-indol-2-yl)prop-2-yn-1-yl]amino}-5-methanesulfonylphenol] | + (+ = 0 μM ≤ SC150 < 0.05 μM) |
| COCC(O)CN1CCC(Nc2cccc3c2cc(C#CCNc2ccc(S(=O)(=O)N(C)C)cc2OC)n3CC(F)(F)F)CC1 (stereo not shown) [Compound 622A] | + (+ = 0 μM ≤ SC150 < 0.05 μM) |
| COc1cc(S(N)(=O)=O)ccc1NCC#Cc1cc2c(NC3CCN(C[C@H](CO)OC)CC3)cccc2n1CC(F)(F)F [Compound 623A, 4-({3-[4-({1-[(2R)-3-hydroxy-2-methoxypropyl]piperidin-4-yl}amino)-1-(2,2,2-trifluoroethyl)-1H-indol-2-yl]prop-2-yn-1-yl}amino)-3-methoxybenzene-1-sulfonamide] | + (+ = 0 μM ≤ SC150 < 0.05 μM) |
| CCC(=O)N(C)S(=O)(=O)c1ccc(NCC#Cc2cc3c(NC4CCN(CC(O)COC)CC4)cccc3n2CC(F)(F)F)c(OC)c1 (stereo not shown) [Compound 624A, N-(4-{[3-(4-{[1-(2-hydroxy-3-methoxypropyl)piperidin-4-yl]amino}-1-(2,2,2-trifluoroethyl)-1H-indol-2-yl)prop-2-yn-1-yl]amino}-3-methoxybenzenesulfonyl)-N-methylpropanamide] | + (+ = 0 μM ≤ SC150 < 0.05 μM) |
| COc1cc(S(C)(=O)=O)ccc1NCC#Cc1cc2c(NC3CCN(C[C@@H](CO)OC)CC3)cccc2n1CC(F)(F)F [Compound 630A, (2S)-3-{4-[(2-{3-[(4-methanesulfonyl-2-methoxyphenyl)amino]prop-1-yn-1-yl}-1-(2,2,2-trifluoroethyl)-1H-indol-4-yl)amino]piperidin-1-yl}-2-methoxypropan-1-ol] | + (+ = 0 μM ≤ SC150 < 0.05 μM) |
| CCOc1cc(S(C)(=O)=O)ccc1NCC#Cc1cc2c(NC3CCN(CC(O)COC)CC3)cccc2n1CC(F)(F)F (stereo not shown) [Compound 631A, 1-{4-[(2-{3-[(2-ethoxy-4-methanesulfonylphenyl)amino]prop-1-yn-1-yl}-1-(2,2,2-trifluoroethyl)-1H-indol-4-yl)amino]piperidin-1-yl}-3-methoxypropan-2-ol] | + (+ = 0 μM ≤ SC150 < 0.05 μM) |
| COc1cc(S(N)(=O)=O)ccc1NCC#Cc1cc2c(NC3CCN(C[C@@H](CO)OC)CC3)cccc2n1CC(F)(F)F [Compound 632A, 4-({3-[4-({l-[(2S)-3-hydroxy-2-methoxypropyl]piperidin-4-yl}amino)-1-(2,2,2-trifluoroethyl)-1H-indol-2-yl]prop-2-yn-1-yl}amino)-3-methoxybenzene-1-sulfonamide] | + (+ = 0 μM ≤ SC150 < 0.05 μM) |
| COCC(O)CN1CCC(Nc2cccc3c2cc(C#CCNc2ccc(C(=O)NC(C)C)cc2OC)n3CC(F)(F)F)CC1 (stereo not shown) [Compound 633A, 4-{[3-(4-{[1-(2-hydroxy-3-methoxypropyl)piperidin-4-yl]amino}-1-(2,2,2-trifluoroethyl)-1H-indol-2-yl)prop-2-yn-1-yl]amino}-3-methoxy-N-(propan-2-yl)benzamide] | + (+ = 0 μM ≤ SC150 < 0.05 μM) |
| COCC(O)CN1CCC(Nc2cccc3c2cc(C#CCNc2ccc(S(N)(=O)=O)cc2O)n3CC(F)(F)F)CC1 (stereo not shown) [Compound 634A, 3-hydroxy-4-{[3-(4-{[1-(2-hydroxy-3-methoxypropyl)piperidin-4-yl]amino}-1-(2,2,2-trifluoroethyl)-1H-indol-2-yl)prop-2-yn-1-yl]amino}benzene-1-sulfonamide] | + (+ = 0 μM ≤ SC150 < 0.05 μM) |

Next, values leading:

| SC150 (concentration of the compound required to increase the DNA binding activity by 50%) | SMILES |
| --- | --- |
| + (+ = 0 μM ≤ SC150 < 0.05 μM) | CCC(=O)OC(COC)CN1CCC(Nc2cccc3c2cc(C#CCNc2ccc(S(N)(=O)=O)cc2OC)n3CC(F)(F)F)CC1 (stereo not shown) [Compound 610A, 1-methoxy-3-{4-[(2-{3-[(2-methoxy-4-sulfamoylphenyl)amino]prop-1-yn-1-yl}-1-(2,2,2-trifluoroethyl)-1H-indol-4-yl)amino]piperidin-1-yl} propan-2-yl propanoate] |
| + (+ = 0 μM ≤ SC150 < 0.05 μM) | COC[C@@H](O)CN1CCC(Nc2cccc3c2cc(C#CCNc2ccc(S(C)(=O)=O)cc2OC)n3CC(F)(F)F)CC1 [Compound 612A, (2S)-1-{4-[(2-{3-[(4-methanesulfonyl-2-methoxyphenyl)amino]prop-1-yn-1-yl}-1-(2,2,2-trifluoroethyl)-1H-indol-4-yl)amino]piperidin-1-yl}-3-methoxypropan-2-ol] |
| + (+ = 0 μM ≤ SC150 < 0.05 μM) | CNS(=O)(=O)c1ccc(NCC#Cc2cc3c(NC4CCN(CCOC)CC4)cccc3n2CC(F)(F)F)c(OC)c1 [Compound 617A, 3-methoxy-4-{[3-(4-{[1-(2-methoxyethyl)piperidin-4-yl]amino}-1-(2,2,2-trifluoroethyl)-1H-indol-2-yl)prop-2-yn-1-yl]amino}-N-methylbenzene-1-sulfonamide] |
| + (+ = 0 μM ≤ SC150 < 0.05 μM) | COc1cc(S(N)(=O)=O)ccc1NCC#Cc1cc2c(NC3CCN(CCOC(C)=O)CC3)cccc2n1CC(F)(F)F [Compound 618A] |
| + (+ = 0 μM ≤ SC150 < 0.05 μM) | COCC(CN1CCC(Nc2cccc3c2cc(C#CCNc2ccc(S(N)(=O)=O)cc2OC)n3CC(F)(F)F)CC1)OC(C)=O (stereo not shown) [Compound 619A, 1-methoxy-3-{4-[(2-{3-[(2-methoxy-4-sulfamoylphenyl)amino]prop-1-yn-1-yl}-1-(2,2,2-trifluoroethyl)-1H-indol-4-yl)amino]piperidin-1-yl}propan-2-yl acetate] |
| + (+ = 0 μM ≤ SC150 < 0.05 μM) | COCC(O)CN1CCC(Nc2cccc3c2cc(C#CCNc2ccc(C(N)=O)cc2OC)n3CC(F)(F)F)CC1 (stereo not shown) [Compound 620A, 4-{[3-(4-{[1-(2-hydroxy-3-methoxypropyl)piperidin-4-yl]amino}-1-(2,2,2-trifluoroethyl)-1H-indol-2-yl)prop-2-yn-1-yl]amino}-3-methoxybenzamide] |
| + (+ = 0 μM ≤ SC150 < 0.05 μM) | COCC(O)CN1CCC(Nc2cccc3c2cc(C#CCNc2ccc(S(C)(=O)=O)cc2OCCF)n3CC(F)(F)F)CC1 (stereo not shown) [Compound 625A, 1-(4-{[2-(3-{[2-(2-fluoroethoxy)-4-methanesulfonylphenyl]amino}prop-1-yn-1-yl)-1-(2,2,2-trifluoroethyl)-1H-indol-4-yl]amino}piperidin-1-yl)-3-methoxypropan-2-ol] |
| + (+ = 0 μM ≤ SC150 < 0.05 μM) | CCC(=O)NS(=O)(=O)c1ccc(NCC#Cc2cc3c(NC4CCN(CC(COC)OC(=O)CC)CC4)cccc3n2CC(F)(F)F)c(OC)c1 (stereo not shown) [Compound 627A, 1-methoxy-3-(4-{[2-(3-{[2-methoxy-4-(propanamidosulfonyl)phenyl]amino}prop-1-yn-1-yl)-1-(2,2,2-trifluoroethyl)-1H-indol-4-yl]amino}piperidin-1-yl)propan-2-yl propanoate] |
| + (+ = 0 μM ≤ SC150 < 0.05 μM) | CCC(=O)NS(=O)(=O)c1ccc(NCC#Cc2cc3c(NC4CCN(CC(COC(=O)CC)OC(=O)CC)CC4)cccc3n2CC(F)(F)F)c(OC)c1 (stereo not shown) [Compound 628A, 1-(4-{[2-(3-{[2-methoxy-4-(propanamidosulfonyl)phenyl]amino}prop-1-yn-1-yl)-1-(2,2,2-trifluoroethyl)-1H-indol-4-yl]amino}piperidin-1-yl)-3-(propanoyloxy)propan-2-yl propanoate] |
| + (+ = 0 μM ≤ SC150 < 0.05 μM) | COc1cc(S(C)(=O)=O)ccc1NCC#Cc1cc2c(NC3CCN(C[C@H](CO)OC)CC3)cccc2n1CC(F)(F)F [Compound 629A, (2R)-3-{4-[(2-{3-[(4-methanesulfonyl-2-methoxyphenyl)amino]prop-1-yn-1-yl}-1-(2,2,2-trifluoroethyl)-1H-indol-4-yl)amino]piperidin-1-yl}-2-methoxypropan-1-ol] |
